These results are taken from publication PMC6227840 (Open Medicine, 2018).

The structures appear in SMILES notation. Read-outs that look alike come from different tables or passages of the source.

The conditions of data set [1]: cited from earlier work.
The conditions of data set [2]: cited from earlier work. This is another data set of the same source.
Data set [3] can be described thus: Population pharmacokinetic. Particulars: normal renal function.

As to `CN[C@H](CC(C)C)C(=O)N[C@H]1C(=O)N[C@@H](CC(N)=O)C(=O)N[C@H]2C(=O)N[C@H]3C(=O)N[C@H](C(=O)N[C@H](C(=O)O)c4cc(O)cc(O)c4-c4cc3ccc4O)[C@H](O)c3ccc(c(Cl)c3)Oc3cc2cc(c3O[C@@H]2O[C@H](CO)[C@@H](O)[C@H](O)[C@H]2O[C@H]2C[C@](C)(N)[C@H](O)[C@H](C)O2)Oc2ccc(cc2Cl)[C@H]1O` [vancomycin, Vancomycin], the “central volume of distribution” value (base model, impaired renal function, n = 78) is recorded as 22.7 L and the “central volume of distribution” value in data set [3] (base model, n = 32) worked out at 7.12 L. Further, the “central volume of distribution, renal impairment group versus normal group” value (base models, 22.7L vs. 7.12L) came to 3 times. Further, the “Clearance of vancomycin – CL, Bootstrap analysis Estimate” value (final model parameter, impaired renal function, 200 bootstrap runs) is given as 0.281 L/h and the “Clearance of vancomycin – CL, Bootstrap analysis Estimate” value in data set [3] (final model parameter, 200 bootstrap runs) is reported as 0.0754 L/h. For the same molecule, the “Central volume of distribution – V1, NONMEM Estimate” value (final model, impaired renal function) is 29.9 L and the “Central volume of distribution – V1, NONMEM Estimate” value in data set [3] (final model) was 7.47 L. Also, the “Central volume of distribution – V1, Bootstrap analysis Estimate” value (final model, impaired renal function, 200 bootstrap runs) was 30.7 L and the “Central volume of distribution – V1, Bootstrap analysis Estimate” value in data set [3] (final model, 200 bootstrap runs) was 7.55 L. Further, the “apparent volume of distribution” value in data set [1] (after intravenous administration, distributed in extracellular space) is 0.4 to 1 L/kg. Also, the clearance entry in data set [1] was “about 2.64 l/h”. Also, in data set [2] (healthy adults), the “interstitial fluid concentration in brain tissue” value is 0 to 3.45 mg/L. Besides, the “interstitial fluid concentration in the brain” value in data set [2] (patients with meningitis) was 6.4 to 11.1 mg/L.
